In US20110217300A1, “Quinazolinone Compounds and Methods of Use Thereof” (priority 2007, published 2011):
Where two headings read alike, the source gives them in different places.

How the values were obtained:
[1] = system: A549; assay: MTS cell viability assay; type: cell-based; details: Homo sapiens, A549 non small cell lung, 72 hours, read-out: MTS NCI A549 GI50
Procedure: Two human cancer cell lines were assayed (see, Table 1). Cells were maintained at 37° C. and 5% CO2 in DMEM media (4.5 g/L glucose) supplemented with 10% heat-inactivated FBS, 10 mM L-glutamine, and 10 mM Hepes pH 7.5. Briefly, cells were seeded in 96-well plates as set forth in Table 1 and incubated for 16-24 hours. Candidate compounds were serially diluted in DMSO, further diluted in cell culture media, and then added to cells (final DMSO concentration of 0.33%). Cells were incubated in the presence of candidate compound for 72 hours. […] The Compound Numbers in Table 2 correspond to the numbers listed parenthetically in the Example titles.

[2] = target: T1, HsEg5 (Homo sapiens, UniProt P52732); assay: Fluorescence detection of HsEg5 ATPase activity (ADP Quest, automated); type: biochemical
T1 sequence (P52732 18-359 limits assumed): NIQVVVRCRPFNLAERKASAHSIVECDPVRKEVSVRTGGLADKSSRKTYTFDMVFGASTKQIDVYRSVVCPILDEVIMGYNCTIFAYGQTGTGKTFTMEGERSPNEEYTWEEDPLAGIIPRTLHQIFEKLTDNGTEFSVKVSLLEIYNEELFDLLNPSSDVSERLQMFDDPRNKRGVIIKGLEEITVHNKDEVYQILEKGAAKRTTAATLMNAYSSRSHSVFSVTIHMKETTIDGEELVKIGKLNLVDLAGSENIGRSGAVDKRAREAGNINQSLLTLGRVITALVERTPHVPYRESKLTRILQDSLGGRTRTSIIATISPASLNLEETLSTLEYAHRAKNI
Procedure: Purified HsEg5 motor fragment was activated by mixture with preformed MT polymer (Cytoskeleton, Denver, Colo.) at room temperature for 20 minutes. MT activated ATPase activity was measured using ADP Quest (DiscoverX, Fremont, Calif.) in which a coupled-enzyme assay can translate accumulation of ADP into detectable resorufin signal (FIG. 1A). Fluorescence was measured at λEx=535 nm and λEm=590 nm on a Wallac Victor 2 plate reader (Perkin-Elmer Life Sciences, Boston, Mass.). Reagent A and B from ADP Quest kit were aliquoted and frozen in −20° C. before use. A standard curve was determined using the provided ADP reagent in the reaction buffer that consisted of 50 mM Pipes (pH7.0), 5.0 mM MgCl2, 20 μM paclitaxel and […]. The same buffer was used for Km determination with HsEg5 concentration of 10 nM.
For inhibitor screening, 4 μL of compounds were incubated with 10 μL of MT-activated HsEg5 such that the final concentrations for compound range from 100 μM to 5 nM (1 to 3 serial dilutions, final concentration) and final concentration for HsEg5 is 10 nM. The mixture was incubated at room temperature for 10 minutes with mild shaking. The screening assay contained 0.3% DMSO in all reaction wells. We used wells containing only DMSO as negative controls and wells without ATP as background. Addition of 6 μL ATP (final concentration of 20 μM) initiated the ATP hydrolysis reaction. The 20 μL-reaction was allowed to proceed at room temperature for 10 minutes before addition of 10 μL of reagent A and 20 μL of reagent B. After 20-minute development at room temperature, the fluorescence was measured and data analysis was performed using GraphPad Prism version 3.0 (GraphPad Software, San Diego, Calif.)
For the purpose of high-throughput screening, we automated the fluorescence assay using a Sciclone ALH3000 (Caliper Life Sciences, Hopkinton, Mass.) and Multidrop 384 (Thermo Electron Corp, Waltham, Mass.). First, compound dilution plates for screening (at 10 μM or 1 μM) and ICso determination (10 data points from 100 μM to 5 nM) were made in Corning polypropylene V-bottom 96-well plates. In both cases, the 1st and 7th column contained background (No ATP addition) and negative control (DMSO only). For screening compounds at 10 μM or 1 μM, […] of each compound at 50 μM or 5 μM were used in a 20 μL assay reaction. For IC50 determination, the mother compound plate contained 24 μL of tested compound at stock concentration of 30 mM. 6 μL of each test compound in 30 mM was added to each well in the column 2 and followed by 1:3 serial dilutions in DMSO with the Sciclone ALH3000. 234 μL of assay buffer was then added using a Multidrop 384. Then 4 μL of diluted compounds was used in 20 μL-reaction. The final concentration was a 1:300 dilution of the original stock. Second, a reagent source plate was prepared with three rows designated to MT-activated HsEg5, Reagent A and Reagent B respectively. MTs were diluted with assay buffer and polymerized at room temperature for 10 minutes. Just before use, HsEg5 protein was thawed on ice and activated by addition of MT polymers at room temperature for 20 minutes. HsEg5/MT was then added to Row A of the reagent source plate. The final assay concentration was 10 nM HsEg5 and 500 nM MTs. Reagent A and B were stored at −20° C. and thawed at room temperature followed by transferring to rows B & C of the reagent source plate. Third, ATP substrate plate was prepared by transferring 80 μM ATP solution to each well of a V-shape 96-well plate except the wells in the first row where assay buffer was added instead to have no-ATP blanks. The final concentration for ATP in the assay was 20 μM.
The assay was programmed on Sciclone ALH3000 with the following procedures: 1) Addition of 4 μL compounds to the assay plate, followed by addition of 10 μL of MT-activated HsEg5. […]

[3] = system: NCI-H460; assay: MTS cell viability assay; type: cell-based, human; details: Homo sapiens, NCI-H460, 72 h
Procedure: Cell viability was determined by measuring the activity of dehydrogenase enzymes in metabolically active cells using a tetrazolium compound, MTS. The assay was performed as described in Promega Technical Bulletin No. 169 (CellTiter 96 Aqueous Non-Radioactive Cell Proliferation Assay). Two human cancer cell lines were assayed (see, Table 1). Cells were maintained at 37° C. and 5% CO2 in DMEM media (4.5 g/L glucose) supplemented with 10% heat-inactivated FBS, 10 mM L-glutamine, and 10 mM Hepes pH 7.5. Briefly, cells were seeded in 96-well plates as set forth in Table 1 and incubated for 16-24 hours. Candidate compounds were serially diluted in DMSO, further diluted in cell culture media, and then added to cells (final DMSO concentration of 0.33%). Cells were incubated in the presence of candidate compound for 72 hours. MTS stock solution (MTS 2 gm/L, PMS […] in PBS) was added to the cells (final concentration MTS […] and PMS 7.67 mg/L) and incubated for 4 hours. SDS was added to a final concentration of 1.4% and absorbance at 490 nm was measured within two hours using a plate reader. […] GI50 values were given in Table 2 for the compounds listed. The Compound Numbers in Table 2 correspond to the numbers listed parenthetically in the Example titles. Where multiple measurements were made by different technicians, both values are given.
Cell viability was determined for N-(3-amino-propyl)-3-chloro-N—[(R)-1-(7-chloro-4-oxo-3-phenylamino-3,4-dihydro-quinazolin-2-yl)-but-3-ynyl]-2-fluoro-benzamide (compound I of Table 2). The cell viability assay of Example 105 was used. GI50 was determined using a variety of cell lines. Cells were plated at 100-5000 cells per well. At least 2 replicates were performed. Where multiple measurements were made by different technicians, both values are given.

[4] = read-out: MTS NCI H460 GI50, NCI-H460 non small cell lung, 72 hours

Structure (SMILES) | GI50 ([1]; A549, 72 h) [nM] | IC50 [2] [nM] | GI50 [3, 4] [nM] | GI50 [1] [nM] | GI50 ([3]; read-out: MTS NCI H460 GI50) [nM]
CCC(c1nc2cc(Cl)ccc2c(=O)n1Nc1ccccc1)N(CCCN)C(=O)c1ccc(Cl)c(Cl)c1 (stereo not drawn) [Compound 6, N-(3-Aminopropyl)-N-[1-(3-anilino-7-chloro-4-oxo-3,4-dihydroquinazolin-2-yl)propyl]-3,4-dichlorobenzamide] | 1870 | 418 | 1160 |  | 
CCC(c1nc2cc(Cl)ccc2c(=O)n1Nc1ccccc1)N(CCCN)C(=O)c1cccc(F)c1F (stereo not drawn) [Compound 7, N-(3-Aminopropyl)-N-[1-(3-anilino-7-chloro-4-oxo-3,4-dihydroquinazolin-2-yl)propyl]-2,3-difluorobenzamide] |  | 566 |  | 2570 | 1770
CCC(c1nc2cc(Cl)ccc2c(=O)n1Nc1ccccc1)N(CCCN)C(=O)c1ccc(F)cc1 (stereo not drawn) [Compound 8, N-(3-Aminopropyl)-N-[1-(3-anilino-7-chloro-4-oxo-3,4-dihydroquinazolin-2-yl)propyl]-4-fluorobenzamide] | 4750 | 2130 | 2830 |  | 
CCC(c1nc2cc(Cl)ccc2c(=O)n1Nc1ccccc1)N(CCCN)C(=O)c1ccc(F)c(F)c1 (stereo not drawn) [Compound 9, N-(3-Aminopropyl)-N-[1-(3-anilino-7-chloro-4-oxo-3,4-dihydroquinazolin-2-yl)propyl]-3,4-difluorobenzamide] | 3570 | 1160 | 2390 |  | 
CCC(c1nc2cc(Cl)ccc2c(=O)n1Nc1ccccc1)N(CCCN)C(=O)c1ccc(F)c(F)c1F (stereo not drawn) [Compound 10, N-(3-Aminopropyl)-N-[1-(3-anilino-7-chloro-4-oxo-3,4-dihydroquinazolin-2-yl)propyl]-2,3,4-trifluorobenzamide] | 2360 | 599 | 1140 |  | 
CCC(c1nc2cc(Cl)ccc2c(=O)n1Nc1ccccc1)N(CCCN)C(=O)c1cc(Cl)cc(Cl)c1 (stereo not drawn) [Compound 11, N-(3-Aminopropyl)-N-[1-(3-anilino-7-chloro-4-oxo-3,4-dihydroquinazolin-2-yl)propyl]-3,5-dichlorobenzamide] |  | 735 |  | 3010 | 2440
CCC(c1nc2cc(Cl)ccc2c(=O)n1Nc1ccccc1)N(CCCN)C(=O)c1cccc(Cl)c1Cl (stereo not drawn) [Compound 12, N-(3-Aminopropyl)-N-[1-(3-anilino-7-chloro-4-oxo-3,4-dihydroquinazolin-2-yl)propyl]-2,3-dichlorobenzamide] |  | 818 |  | 3370 | 2110
CCC(c1nc2cc(Cl)ccc2c(=O)n1Nc1ccccc1)N(CCCN)C(=O)c1ccc(F)c(Cl)c1 (stereo not drawn) [Compound 13, N-(3-Aminopropyl)-N-[1-(3-anilino-7-chloro-4-oxo-3,4-dihydroquinazolin-2-yl)propyl]-3-chloro-4-fluorobenzamide] |  | 749 |  | 3570 | 2210
CCC(c1nc2cc(Cl)ccc2c(=O)n1Nc1ccccc1)N(CCCN)C(=O)c1cccc(Br)c1 (stereo not drawn) [Compound 14, N-(3-Aminopropyl)-N-[1-(3-anilino-7-chloro-4-oxo-3,4-dihydroquinazolin-2-yl)propyl]-3-bromobenzamide] |  | 1000 |  | 3440 | 3250
CCC(c1nc2cc(Cl)ccc2c(=O)n1Nc1ccccc1)N(CCCN)C(=O)c1ccc(I)cc1 (stereo not drawn) [Compound 15, N-(3-Aminopropyl)-N-[1-(3-anilino-7-chloro-4-oxo-3,4-dihydroquinazolin-2-yl)propyl]-4-iodobenzamide] | 3080 | 1650 | 2270 |  | 
CCC(c1nc2cc(Cl)ccc2c(=O)n1Nc1ccccc1)N(CCCN)C(=O)c1ccc(C)c(F)c1 (stereo not drawn) [Compound 16, N-(3-Aminopropyl)-N-[1-(3-anilino-7-chloro-4-oxo-3,4-dihydroquinazolin-2-yl)propyl]-3-fluoro-4-methylbenzamide] |  | 1150 |  | 1360 | 929
CCC(c1nc2cc(Cl)ccc2c(=O)n1Nc1ccccc1)N(CCCN)C(=O)c1c(F)ccc(C)c1F (stereo not drawn) [Compound 17, N-(3-Aminopropyl)-N-[1-(3-anilino-7-chloro-4-oxo-3,4-dihydroquinazolin-2-yl)propyl]-2,6-difluoro-3-methylbenzamide] | 2560 | 1600 | 1590 |  | 
CCC(c1nc2cc(Cl)ccc2c(=O)n1Nc1ccccc1)N(CCCN)C(=O)c1ccc(F)c(C)c1 (stereo not drawn) [Compound 18, N-(3-Aminopropyl)-N-[1-(3-anilino-7-chloro-4-oxo-3,4-dihydroquinazolin-2-yl)propyl]-4-fluoro-3-methylbenzamide] | 3920 | 1250 | 2500 |  | 
CCC(c1nc2cc(Cl)ccc2c(=O)n1Nc1ccccc1)N(CCCN)C(=O)c1cccc(Cl)c1F (stereo not drawn) [Compound 19, N-(3-Aminopropyl)-N-[1-(3-anilino-7-chloro-4-oxo-3,4-dihydroquinazolin-2-yl)propyl]-3-chloro-2-fluorobenzamide] |  | 582 |  | 1570 | 894
